Consider three molecules from US10155001B2, “RAC1 inhibitors for inducing bronchodilation” (INSERM (Institut National de la Sante et de la Recherche …, priority 2013, dated 2018).

Entries after “also recorded” stand apart in the source; their conditions may differ.

Assay [1] concerns bronchial rings from control and house dust mite (HDM)-sensitized mice. Put plainly: Contractile responses ex vivo of bronchial rings from control and house dust mite-sensitized mice. The following applies: bronchial rings from control and HDM-sensitized mice pre-treated with inhibitor; FIG. 7. On the procedure: (§1) Analysis of airways reactivity ex vivo: Primary bronchi were cut in 2 mm-long rings and mounted on a multichannel isometric myograph (Danish Myo Technology) containing a Krebs-Henseleit solution (118.4 mM NaCl, 4.7 mM KCl, 2 mM CaCl2, 1.2 mM MgSO4, 1.2 mM KH2PO4, 25 mM NaHCO3 and 11 mM glucose). A pre-trension of 0.5 mN was applied and maintained all along the protocol. We constructed cumulative concentration-response curves in response to KCl and methacholine (Sigma). When indicated, we pretreated rings with EHT1864 (Sigma) or NSC23766 (Calbiochem) Rac1 inhibitors at 10 μM, 1 h before contraction. Chambers wire myograph were connected to a digital data recorder (MacLab/4e, AD Instruments) and recordings were analyzed using LabChart v7 software (AD Instruments).
Allergic asthma induction: House dust mite model (HDM) of chronic asthma was used. In this case, mice were sensitized on days D0, D7, D14 and D21 by skin application of 500 μg of total extract of HDM Der f (Stallergenes) in 20 μL of dimethylsulfoxyde (DMSO, Sigma-Aldrich) on the ears. DMSO was used as an irritant able to facilitate the allergen penetration. Intranasal challenges were performed with Der f (250 μg in phosphate-buffered saline 250) on D27 and D34. Mice were sacrificed on D35 for ex vivo analysis.

Assay [2] concerns AHR to methacholine in OVA-sensitized mice. Put plainly: Airway hyper-responsiveness to methacholine in OVA model of allergic asthma, plethysmography. The following applies: for metacholine-induced airway response: summary statement: compared with SM-Rac1-KO mice in the OVA-sensitized model of allergic asthma; for AHR to methacholine: OVA-sensitized mice, nebulized before methacholine challenge, FIG. 6, E (o/o).
Experimental: Analysis of airways responsiveness in vivo: Airway responsiveness was assessed in conscious, unrestrained mice using a barometric, whole-body plethysmography (EMKA Technologies) by recording respiratory pressure curves in response to inhaled methacholine (Sigma) at concentrations of 0-40 mg/ml for 1 min. Airway responsiveness was expressed in enhanced pause (Penh) units. The Penh values measured after stimulation were averaged and expressed as the fold-increase over baseline values. Alternatively, dynamic airway resistance was measured using a Flexivent® apparatus (SCIREQ). In this case, mice were anesthetized by a ketamine/xylazine solution, tracheotomized, paralyzed and immediately intubated, followed by mechanical ventilation. Respiratory frequency was set at 150 breaths/min. Increasing concentrations of methacholine (0-15 mg/mL) were administered via a nebulizer aerosol system (Aeroneb, Aerogen).
Allergic asthma induction: When indicated, asthma was induced in mice by intraperitoneal injections with ovalbumin (OVA) in alum (Sigma) at D0, D14 and D21. Mice were challenged at D27, D28 and D29 through intranasal route with aerosolized OVA (50 μg in phosphate-buffered saline). These OVA-sensitized mice were used as a model of in vivo chronic asthma. Control mice were sensitized with PBS/alum and then were challenged with PBS.

Assay [3] concerns bronchial rings. Put plainly: Analysis of airways reactivity ex vivo: bronchial rings on isometric myograph. The following applies: bronchial rings from SM-Rac1-KO mice; FIG. 2, A and B. As to the method:
as §1

For assay [4], the system named is methacholine-dependent bronchoconstriction. Put plainly: Airways responsiveness in vivo to inhaled methacholine, whole-body plethysmography, control (naive) mice. The following applies: nebulized 10 min before methacholine challenge, FIG. 3, B and FIG. 6, E (ap/ap).

As to `O=c1cc(CN2CCOCC2)occ1OCCCCCSc1ccnc2cc(C(F)(F)F)ccc12` [EHT1864], the “methacholine and KCl contractions (bronchial reactivity)” value in assay [1] is “methacholine and KCl contractions are inhibited in both group of bronchial rings; also recorded: bronchial reactivities of control and HDM sensitized-mice are similar”. In addition, in assay [2], the metacholine-induced airway response entry is given as “Same results have been obtained”.
In the case of `CCN(CC)CCCC(C)Nc1nc(C)cc(Nc2ccc3nc(C)cc(N)c3c2)n1` (centres unmarked) [NSC23766], the “KCl- and methacholine-induced contraction” value in assay [3] is listed as “absence of any effect”. Further, in assay [2], the AHR to methacholine entry was “almost completely prevented the AHR to methacholine; also recorded: comparable to that of salbutamol treatment” and the metacholine-induced airway response result is “Same results have been obtained”. In assay [4], the “methacholine-dependent bronchoconstriction (airway reactivity, Penh)” value is given as “prevented methacholine-dependent bronchoconstriction (FIG. 3, B) in a dose-dependent manner; also recorded: comparable to that of salbutamol treatment”.
In the case of `CC(C)(C)NCC(O)c1ccc(O)c(CO)c1` (centres unmarked) [salbutamol], the AHR to methacholine entry in assay [2] is reported as “effect of NSC23766 aerosol inhalation was comparable to that of salbutamol treatment”. For the same molecule, the “methacholine-dependent bronchoconstriction (airway reactivity, Penh)” value in assay [4] is listed as “efficiency of NSC23766 aerosol inhalation is similar to that of salbutamol; also recorded: effect of NSC23766 aerosol inhalation was comparable to that of salbutamol treatment”.
